Key:
CEM/Cl = assay: MTT assay of cell viability, CEM/Cl; type: cell-based; details: 5 days at 37 C
Method: (§1) The in vitro cytotoxicities of thioaminal prodrugs of Cordycepin were compared to the parent drug Cordycepin using a standard MTT assay of cell viability (Hansen et al. (1989) J. Immunol. Meth. 119:203-10). Leukemia cell lines growing in the exponential phase (MOLT, […], and CEM/Cl) were plated at a final concentration of 1×10^5 cells/ml and exposed to serial dilutions of the Cordycepin prodrugs. In a subset of the experiments (denoted by “+”), the cells were preincubated with 1 μM of the ADA inhibitor 2′-deoxycoformycin for 30 minutes prior to addition of prodrug. Cell viability was determined after incubation for 5 days at 37 C by addition of 3-(4,5-dimethylthizaol-2-yl)-2,5-diplenyl-tetrazolium dye. IC50 was defined as the drug concentration that reduced cell viability 50% in comparison with the appropriate control.

[1] = HPLC stability analysis: hydrolysis of the prodrug to Cordycepin in phosphate buffer; type: physicochemical; details: 0.63 mM in 30 mM phosphate buffer (pH 7.3) containing 5% DMSO, 37 C; for half-life at 0.63 mM: read-out: t½ (time point at which half of the Cordycepin prodrug was hydrolysed to Cordycepin) (converted)
Method: To analyze the half-life of thioaminal prodrugs, HPLC stability analysis was performed on the following Cordycepin prodrugs. Solutions (0.63 mM) of each of the following compounds was prepared in 30 mM phosphate buffer (pH 7.3) containing 5% DMSO and incubated at 37 C.

[2] = tested on: Leukemia cell lines (MOLT, and CEM/Cl); assay: MTT assay of cell viability, overall comparison with Cordycepin; type: cell-based; details: absence vs presence of ADA inhibitor 2′-deoxycoformycin
Method: as §1

[3] = tested on: Leukemia cell lines (MOLT, HL-69, and CEM/Cl); assay: as above; type: cell-based; details: both in the presence and absence of ADA inhibitor
Method: as §1

MOLT = assay: MTT assay of cell viability, MOLT; type: cell-based; details: 5 days at 37 C
Method: as §1

HL-60 = assay: MTT assay of cell viability, HL-60; type: cell-based; details: 5 days at 37 C
Method: as §1

[4] = + (preincubated with 1 μM 2′-deoxycoformycin for 30 minutes)
[5] = HL-60, + (preincubated with 1 μM 2′-deoxycoformycin for 30 minutes)
[6] = Homo sapiens, 120 h, HL-60, − (no ADA inhibitor)

Compound | IC50 (CEM/Cl; [4]) [µM] | IC50 (CEM/Cl; − (no ADA inhibitor)) [µM] | t½ (time point at which half of the Cordycepin prodrug was hydrolysed to Cordycepin) [1] [h] | attenuation of activity in the absence of ADA inhibitor [2] | cytotoxic potency compared to Cordycepin [3] | half-life at 0.63 mM [1] [h] | IC50 (MOLT; 120 h, − (no ADA inhibitor)) [µM] | IC50 (MOLT; [4]) [µM] | IC50 (CEM/Cl; 120 h, − (no ADA inhibitor)) [µM] | IC50 (HL-60; [5]) [µM] | IC50 (HL-60; [6]) [µM]
6-N-(4-N-acetylbenzylthio)methyl-Cordycepin [8b] | 3 | 15 | – | – | – | – | – | – | – | – | –
CCSCNc1ncnc2c1ncn2[C@@H]1O[C@H](CO)C[C@H]1O [1b, 6-N-(Ethanethio)methyl-Cordycepin] | – | – | >72 | – | – | – | – | – | – | – | –
OCCSCNc1ncnc2c1ncn2[C@@H]1O[C@H](CO)C[C@H]1O [2b, 6-N-(2-hydroxyethanethio)methyl-Cordycepin] | – | – | >72 | – | – | – | – | – | – | – | –
OC[C@@H]1C[C@@H](O)[C@H](n2cnc3c(NCSc4ccccc4)ncnc32)O1 [3b, 6-N-(phenylthiol)methyl-Cordycepin] | 2 | – | – | not significantly attenuated | more potent cytotoxic agents than Cordycepin | 15 | 18 | 16 | 5.5 | 7 | 24
Cc1ccc(SCNc2ncnc3c2ncn3[C@@H]2O[C@H](CO)C[C@H]2O)cc1 [4b] | 5 | – | – | – | more potent cytotoxic agents than Cordycepin | – | 35 | 30 | 24 | 17 | 50
COc1ccc(SCNc2ncnc3c2ncn3[C@@H]2O[C@H](CO)C[C@H]2O)cc1 [5b, 6-N-(4-methoxybenzothio)methyl-Cordycepin] | 3 | – | – | – | more potent cytotoxic agents than Cordycepin | 17 | – | – | 15 | – | –
O=[N+]([O-])c1ccc(CSCNc2ncnc3c2ncn3[C@@H]2O[C@H](CO)C[C@H]2O)cc1 [7b, 6-N-(4-nitrobenzylthio)methyl-Cordycepin] | – | – | 1 | – | – | – | – | – | – | – | –
Nc1ncnc2c1ncn2[C@@H]1O[C@H](CO)C[C@H]1O [Cordycepin, 3′-deoxyadenosine, reference compound] | 2 | – | – | – | – | – | 80 | 21 | 27 | 9 | 42
